Where two headings read alike, the source gives them in different places.
Legend:
44 protein targets = experiment: Selectivity screen against 44 protein targets (whole panel); type: binding; settings: 10 μM; % inhibition less than 50% is considered no effect
Description: If the % inhibition is less than 50%, the test compounds is consider to have no effect.

Ovarian OAW28 (OAW2B) = experiment: Cancer cell proliferation assay (acid phosphatase); type: cell-based; settings: Homo sapiens, OAW-28
How it was run: (§1)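 Seed 4×10^4 cells/ml, overnight 37° C./5% CO2; add compound (varying conc., triplicate); incubate 72 hrs; wash PBS; acid phosphatase substrate pH 5.5, 2 h; stop NaOH; read 405/620 nm; % inhibition vs DMSO.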

JEKO-1 (lymophoma) = experiment: Cancer cell proliferation assay (acid phosphatase); type: cell-based; settings: Homo sapiens
How it was run: as §1

Ovarian (A2780) = experiment: Cancer cell proliferation assay (acid phosphatase); type: cell-based; settings: Homo sapiens
How it was run: as §1

Colo205 (colon) = experiment: Cancer cell proliferation assay (acid phosphatase); type: cell-based; settings: Homo sapiens, COLO 205; Table 6C, data of FIG. 2
How it was run: as §1

Ovarian (OAW42) = experiment: Cancer cell proliferation assay (acid phosphatase); type: cell-based; settings: Homo sapiens, OAW-42
How it was run: as §1

SKOV3 (ovarian) = experiment: Cancer cell proliferation assay (acid phosphatase); type: cell-based; settings: Homo sapiens, SK-OV-3; Table 6D, another set of cell proliferation assay
How it was run: as §1

HT-29 (colon) = experiment: Cancer cell proliferation assay (acid phosphatase); type: cell-based; settings: Homo sapiens, Table 6C, data of FIG. 2
How it was run: as §1

Mantle Cell Mino = experiment: Cancer cell proliferation assay (acid phosphatase); type: cell-based; settings: Homo sapiens, Table 6E
How it was run: as §1

SW626 (ovarian) = experiment: Cancer cell proliferation assay (acid phosphatase); type: cell-based; settings: Homo sapiens
How it was run: as §1

H292 (lung) = experiment: Cancer cell proliferation assay (acid phosphatase); type: cell-based; settings: Homo sapiens, NCI-H292; Table 6C, data of FIG. 2
How it was run: as §1

A427 (lung) = experiment: Cancer cell proliferation assay (acid phosphatase); type: cell-based; settings: Homo sapiens, A-427; Table 6C, data of FIG. 2
How it was run: as §1

Ovarian OVCAR-3 = experiment: Cancer cell proliferation assay (acid phosphatase); type: cell-based; settings: Homo sapiens, Table 6E
How it was run: as §1

Ovarian (ES-2) = experiment: Cancer cell proliferation assay (acid phosphatase); type: cell-based
How it was run: as §1

TOV-112D (ovarian) = experiment: Cancer cell proliferation assay (acid phosphatase); type: cell-based; settings: Homo sapiens, TOV112D
How it was run: as §1

MAPK14 (p38 alpha) = MAPK14 (p38 alpha) (Homo sapiens, UniProt Q16539); experiment: Kinase panel assay; type: biochemical
MAPK14 (p38 alpha), sequence (Q16539 whole entry, species assumed): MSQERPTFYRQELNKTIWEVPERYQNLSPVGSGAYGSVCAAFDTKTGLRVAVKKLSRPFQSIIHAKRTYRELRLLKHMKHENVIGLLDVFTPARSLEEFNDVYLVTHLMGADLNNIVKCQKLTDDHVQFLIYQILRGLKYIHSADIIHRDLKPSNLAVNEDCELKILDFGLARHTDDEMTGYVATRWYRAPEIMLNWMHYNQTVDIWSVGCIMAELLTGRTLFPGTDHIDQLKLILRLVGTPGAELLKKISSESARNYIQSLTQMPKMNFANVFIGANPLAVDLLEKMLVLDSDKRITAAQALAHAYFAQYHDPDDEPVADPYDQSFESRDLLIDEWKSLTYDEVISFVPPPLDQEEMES
Description: (§2) Compound 42 was also screened in a kinase panel assay.

CDK4/CyclinD1 = CDK4/CyclinD1 (Homo sapiens, UniProt P11802); experiment: Kinase panel assay; type: biochemical
CDK4/CyclinD1, sequence (P11802 whole entry, species assumed): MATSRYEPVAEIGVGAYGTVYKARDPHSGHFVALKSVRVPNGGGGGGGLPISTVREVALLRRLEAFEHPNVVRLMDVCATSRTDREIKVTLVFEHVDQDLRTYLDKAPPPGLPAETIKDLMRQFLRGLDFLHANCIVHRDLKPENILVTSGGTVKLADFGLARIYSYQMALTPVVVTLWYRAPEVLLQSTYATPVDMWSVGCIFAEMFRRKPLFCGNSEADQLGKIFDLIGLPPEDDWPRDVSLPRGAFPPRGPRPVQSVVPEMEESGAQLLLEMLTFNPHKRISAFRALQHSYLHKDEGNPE
CDK4/CyclinD1, sequence (P24385 whole entry partner, species assumed): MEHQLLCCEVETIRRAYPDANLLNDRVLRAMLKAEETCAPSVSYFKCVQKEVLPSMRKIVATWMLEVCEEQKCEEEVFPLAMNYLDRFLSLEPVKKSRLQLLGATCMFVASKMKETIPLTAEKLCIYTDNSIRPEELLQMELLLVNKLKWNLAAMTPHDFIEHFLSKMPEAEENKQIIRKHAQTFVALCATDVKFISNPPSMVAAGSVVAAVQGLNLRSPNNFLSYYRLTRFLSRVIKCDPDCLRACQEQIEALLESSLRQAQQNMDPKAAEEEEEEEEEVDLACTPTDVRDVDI
Description: as §2

CDK2/Cyclin A = CDK2/Cyclin A (Homo sapiens, UniProt P24941); experiment: Kinase panel assay; type: biochemical
Description: as §2

CDK6/CyclinD1 = CDK6/CyclinD1 (Homo sapiens, UniProt Q00534); experiment: Kinase panel assay; type: biochemical
CDK6/CyclinD1, sequence (Q00534 whole entry, species assumed): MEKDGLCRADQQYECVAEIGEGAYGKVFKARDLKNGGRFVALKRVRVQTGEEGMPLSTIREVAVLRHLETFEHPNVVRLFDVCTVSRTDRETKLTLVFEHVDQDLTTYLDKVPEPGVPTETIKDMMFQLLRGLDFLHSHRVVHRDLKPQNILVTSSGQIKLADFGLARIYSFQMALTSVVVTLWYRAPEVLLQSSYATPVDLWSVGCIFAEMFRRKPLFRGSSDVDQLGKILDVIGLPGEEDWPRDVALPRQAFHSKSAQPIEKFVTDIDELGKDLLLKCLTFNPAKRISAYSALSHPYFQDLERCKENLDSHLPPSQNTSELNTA
CDK6/CyclinD1, sequence (P24385 whole entry partner, species assumed): as the sequence (P24385 whole entry partner, species assumed) above
Description: as §2

MAPK3 (ERK1) = MAPK3 (ERK1) (Homo sapiens, UniProt P27361); experiment: Kinase panel assay; type: biochemical
MAPK3 (ERK1), sequence (P27361 whole entry, species assumed): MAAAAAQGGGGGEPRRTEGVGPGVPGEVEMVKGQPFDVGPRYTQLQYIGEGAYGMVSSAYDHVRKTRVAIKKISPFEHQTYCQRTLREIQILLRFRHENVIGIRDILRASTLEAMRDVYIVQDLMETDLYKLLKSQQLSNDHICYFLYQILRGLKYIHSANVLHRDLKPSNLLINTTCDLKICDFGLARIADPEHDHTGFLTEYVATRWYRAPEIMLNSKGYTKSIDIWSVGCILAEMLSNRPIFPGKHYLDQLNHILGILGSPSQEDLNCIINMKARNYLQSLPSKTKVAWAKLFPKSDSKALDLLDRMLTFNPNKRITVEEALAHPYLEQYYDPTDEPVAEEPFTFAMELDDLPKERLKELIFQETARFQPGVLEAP
Description: as §2

EGFR (ErbB1) = EGFR (ErbB1) (Homo sapiens, UniProt P00533); experiment: Kinase panel assay; type: biochemical
EGFR (ErbB1), sequence (P00533 25-1210, species assumed): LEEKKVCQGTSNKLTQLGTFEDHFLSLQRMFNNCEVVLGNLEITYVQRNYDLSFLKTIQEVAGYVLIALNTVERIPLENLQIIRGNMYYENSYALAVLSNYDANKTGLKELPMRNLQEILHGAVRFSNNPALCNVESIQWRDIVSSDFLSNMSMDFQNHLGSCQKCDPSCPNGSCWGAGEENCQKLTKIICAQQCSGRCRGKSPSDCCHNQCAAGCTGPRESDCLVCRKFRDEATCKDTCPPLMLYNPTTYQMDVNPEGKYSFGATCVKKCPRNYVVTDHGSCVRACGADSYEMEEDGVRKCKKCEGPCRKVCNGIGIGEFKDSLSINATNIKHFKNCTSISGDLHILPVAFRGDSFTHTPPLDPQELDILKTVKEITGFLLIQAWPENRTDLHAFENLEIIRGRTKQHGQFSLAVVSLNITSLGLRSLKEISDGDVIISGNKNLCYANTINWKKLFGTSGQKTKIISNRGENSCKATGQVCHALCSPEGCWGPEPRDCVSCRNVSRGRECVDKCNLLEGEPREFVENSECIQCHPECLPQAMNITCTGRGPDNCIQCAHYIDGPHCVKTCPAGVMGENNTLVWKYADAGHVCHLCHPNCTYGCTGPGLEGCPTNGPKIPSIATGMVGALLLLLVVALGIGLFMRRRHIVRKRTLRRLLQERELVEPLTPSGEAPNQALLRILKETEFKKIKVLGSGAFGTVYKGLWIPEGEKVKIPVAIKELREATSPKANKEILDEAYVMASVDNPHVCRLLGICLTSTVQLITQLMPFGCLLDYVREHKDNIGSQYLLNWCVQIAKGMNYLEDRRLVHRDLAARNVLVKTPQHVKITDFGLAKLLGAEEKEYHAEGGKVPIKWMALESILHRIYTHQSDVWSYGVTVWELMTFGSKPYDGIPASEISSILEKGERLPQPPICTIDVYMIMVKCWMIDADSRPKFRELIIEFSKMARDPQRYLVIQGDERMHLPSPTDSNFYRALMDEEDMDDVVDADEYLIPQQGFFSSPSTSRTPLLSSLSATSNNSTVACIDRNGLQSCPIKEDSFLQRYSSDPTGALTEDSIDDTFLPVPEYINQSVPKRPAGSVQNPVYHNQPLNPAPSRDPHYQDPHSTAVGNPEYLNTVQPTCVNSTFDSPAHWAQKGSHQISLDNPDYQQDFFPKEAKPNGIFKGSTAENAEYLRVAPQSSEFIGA
Description: as §2

[1] = Table 6D, another set of cell proliferation assay

Compound: Cc1ccccc1C(=O)Nc1nc(NC(=O)c2ccccc2C)n(-c2ccc(OC(F)(F)F)cc2)n1 [Compound 42, N,N′-(1-(4-(trifluoromethoxy)phenyl)-1H-1,2,4-triazole-3,5-diyl)bis(2-methylbenzamide)]
- effect against the 44 protein targets (44 protein targets): no effects
- EC50 (Ovarian OAW28 (OAW2B); [1]): 114 nM
- IC50 (Ovarian OAW28 (OAW2B); Table 6E): 140 nM
- EC50 (JEKO-1 (lymophoma); Table 6D, another set of cell proliferation assay, read-out: EC50 (nM) Mantle cell (Jeko-1)): 154 nM
- IC50 (JEKO-1 (lymophoma); Table 6E, read-out: Proliferation IC50 (nM) Mantle Cell Jeko-1): 154 nM
- EC50 (Ovarian (A2780); [1]): 58 nM
- IC50 (Ovarian (A2780); Table 6E): 84 nM
- IC50 (Colo205 (colon)): 0.2 µM
- EC50 (Ovarian (OAW42); [1]): 166 nM
- IC50 (Ovarian (OAW42); Table 6E): 166 nM
- EC50 (SKOV3 (ovarian)): 376 nM
- IC50 (HT-29 (colon)): 0.2 µM
- IC50 (Mantle Cell Mino): 345 nM
- IC50 (SW626 (ovarian); Table 6C, data of FIG. 2): 0.3 µM
- EC50 (SW626 (ovarian); [1]): 334 nM
- IC50 (H292 (lung)): 0.16 µM
- IC50 (A427 (lung)): 0.15 µM
- IC50 (Ovarian OVCAR-3): 140 nM
- EC50 (Ovarian (ES-2); [1]): 42 nM
- IC50 (Ovarian (ES-2); Table 6E): 57 nM
- IC50 (TOV-112D (ovarian); Table 6C, data of FIG. 2, read-out: IC50 (μM) TOV-112D (ovarian)): 0.13 µM
- EC50 (TOV-112D (ovarian); Table 6D, another set of cell proliferation assay, read-out: EC50 (nM) Ovarian (TOV0112D)): 98 nM
- IC50 (TOV-112D (ovarian); Table 6E, read-out: Proliferation IC50 (nM) Ovarian TOV112D): 0.103 µM
- inhibition at 10 µM (MAPK14 (p38 alpha)): 19%
- inhibition at 10 µM (CDK4/CyclinD1): 12%
- inhibition at 10 µM (CDK2/Cyclin A): 4%
- inhibition at 10 µM (CDK6/CyclinD1): 0%
- inhibition at 10 µM (MAPK3 (ERK1)): 1%
- inhibition at 10 µM (EGFR (ErbB1)): 8%

From patent US10889553B2, “Asymmetric triazole benzamide derivatives and the compositions and methods of treatment regarding the same” (NysnoBio Ireland DAC, priority 2017, dated 2021)
